Assay results published in US7060451B2, “Methods for screening GABA-modulatory compounds for specified pharmacological activities” (Neurogen Corporation, priority 1999, dated 2006).
Marks after values point to notes of the source that are not given here.

Legend:
[1] = test system: rats; test: spatial water maze; assay type: in vivo; details: rat
[2] = target: α2β3γ2 GABAA subtype receptor (Homo sapiens, UniProt P18507+P47869); test: oocyte electrophysiology, two electrode voltage-clamp, potentiation of GABA current; assay type: cell-based; details: Xenopus oocytes, human subunits, GABA EC10
Sequence of α2β3γ2 GABAA subtype receptor (P47869 29-451): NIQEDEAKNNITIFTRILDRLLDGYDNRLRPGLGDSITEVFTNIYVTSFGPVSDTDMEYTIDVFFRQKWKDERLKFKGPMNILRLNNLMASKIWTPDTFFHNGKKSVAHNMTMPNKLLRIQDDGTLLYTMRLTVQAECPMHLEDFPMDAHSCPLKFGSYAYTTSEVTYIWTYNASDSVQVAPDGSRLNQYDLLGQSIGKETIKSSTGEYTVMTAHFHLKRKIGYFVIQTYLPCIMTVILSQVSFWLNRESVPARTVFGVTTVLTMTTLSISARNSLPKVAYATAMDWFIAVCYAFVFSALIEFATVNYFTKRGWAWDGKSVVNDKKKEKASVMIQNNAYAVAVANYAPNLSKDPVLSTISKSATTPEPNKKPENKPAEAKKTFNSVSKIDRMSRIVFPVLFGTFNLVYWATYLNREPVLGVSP
Sequence of α2β3γ2 GABAA subtype receptor (P28472 26-473 partner): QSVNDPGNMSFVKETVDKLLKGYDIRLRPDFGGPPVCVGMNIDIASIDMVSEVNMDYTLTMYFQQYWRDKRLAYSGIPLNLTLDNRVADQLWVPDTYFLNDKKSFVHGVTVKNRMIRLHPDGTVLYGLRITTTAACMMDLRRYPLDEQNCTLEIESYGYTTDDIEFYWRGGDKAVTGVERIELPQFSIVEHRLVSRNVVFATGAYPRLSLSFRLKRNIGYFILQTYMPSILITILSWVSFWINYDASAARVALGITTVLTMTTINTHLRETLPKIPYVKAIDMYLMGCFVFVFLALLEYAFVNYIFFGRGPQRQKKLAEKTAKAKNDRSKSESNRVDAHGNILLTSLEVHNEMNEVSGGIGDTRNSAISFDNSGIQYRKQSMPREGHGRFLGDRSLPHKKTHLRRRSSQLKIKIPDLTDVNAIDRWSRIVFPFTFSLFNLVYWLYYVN
Sequence of α2β3γ2 GABAA subtype receptor (P18507 40-475): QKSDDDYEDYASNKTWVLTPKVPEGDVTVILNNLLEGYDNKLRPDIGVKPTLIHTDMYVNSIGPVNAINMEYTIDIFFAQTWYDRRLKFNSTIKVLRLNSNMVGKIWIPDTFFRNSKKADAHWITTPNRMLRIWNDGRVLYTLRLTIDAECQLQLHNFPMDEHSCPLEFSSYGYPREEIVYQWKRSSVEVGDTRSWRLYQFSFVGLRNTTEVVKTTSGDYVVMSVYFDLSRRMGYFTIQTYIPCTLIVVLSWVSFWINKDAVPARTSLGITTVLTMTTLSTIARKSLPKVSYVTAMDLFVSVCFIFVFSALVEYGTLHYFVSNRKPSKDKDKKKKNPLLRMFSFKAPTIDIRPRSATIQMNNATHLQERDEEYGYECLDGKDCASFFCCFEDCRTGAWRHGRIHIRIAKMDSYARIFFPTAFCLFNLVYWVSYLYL
Method: (§1) Assays are carried out as described previously in White and Gurley, 1995 and White, et al., 1995. Xenopus laevis oocytes are enzymatically isolated and injected with non-polyadenylated cRNA for human derived α, β and γ GABAA subunits, respectively. In more preferred embodiments cRNA for the α1β2γ2, α2β3γ2, α3β3γ2, and α5β3γ2 subunit combinations are injected. Only one of these subunit combinations is injected per cell. For each subunit combination, sufficient message is injected to result in current amplitudes of >10 nA when 1 μM GABA is applied. Electrophysiological recordings are carried out using the two electrode voltage-clamp technique at a membrane holding potential of −70 mV.
(§2) Compounds are evaluated against a GABA concentration that evokes <10% (EC10) of the maximal evocable GABA current. Each oocyte is exposed to increasing concentrations of compound in order to evaluate a concentration/effect relationship.
(§3) Specificity of a compound for the Ro15-1788 site is determined following completion of the concentration/effect curve. After washing the oocyte sufficiently to remove previously applied compound, the oocyte is exposed to GABA and 1 μM Ro15-1788, followed by exposure to GABA, 1 μM Ro15-1788, and compound. Percent change due to addition of compound is calculated as described above. Any percent change observed in the presence of Ro15-1788 is subtracted from the percent changes in current amplitude observed in the absence of 1 μM Ro15-1788. These net values are used for the calculation of average activity and EC50 values.
(§4) To evaluate average activity and EC50 values, the concentration/effect data are averaged across cells and fit to the logistic equation. Average values are reported as mean ±standard error.

[3] = target: α1β2γ2 GABAA subtype receptor (Homo sapiens, UniProt P14867+P18507); test: as above; assay type: cell-based; details: Xenopus oocytes, human subunits, GABA EC10; for Emax: read-out: oocyte electrophysiology maximum potentiation (%) α1β2γ2
Sequence of α1β2γ2 GABAA subtype receptor (P14867 28-456): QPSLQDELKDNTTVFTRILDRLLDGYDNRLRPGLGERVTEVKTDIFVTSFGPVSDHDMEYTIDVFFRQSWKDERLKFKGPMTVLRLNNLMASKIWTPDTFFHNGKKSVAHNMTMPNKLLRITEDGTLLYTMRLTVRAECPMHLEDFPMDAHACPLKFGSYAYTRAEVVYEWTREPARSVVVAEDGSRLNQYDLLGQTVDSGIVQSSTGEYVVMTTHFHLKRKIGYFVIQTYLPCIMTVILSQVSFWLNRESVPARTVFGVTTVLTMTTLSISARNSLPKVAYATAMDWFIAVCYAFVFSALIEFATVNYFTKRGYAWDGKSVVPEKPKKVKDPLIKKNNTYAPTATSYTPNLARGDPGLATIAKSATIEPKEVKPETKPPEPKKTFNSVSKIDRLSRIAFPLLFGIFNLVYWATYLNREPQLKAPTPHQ
Sequence of α1β2γ2 GABAA subtype receptor (P47870 25-512 partner limits assumed): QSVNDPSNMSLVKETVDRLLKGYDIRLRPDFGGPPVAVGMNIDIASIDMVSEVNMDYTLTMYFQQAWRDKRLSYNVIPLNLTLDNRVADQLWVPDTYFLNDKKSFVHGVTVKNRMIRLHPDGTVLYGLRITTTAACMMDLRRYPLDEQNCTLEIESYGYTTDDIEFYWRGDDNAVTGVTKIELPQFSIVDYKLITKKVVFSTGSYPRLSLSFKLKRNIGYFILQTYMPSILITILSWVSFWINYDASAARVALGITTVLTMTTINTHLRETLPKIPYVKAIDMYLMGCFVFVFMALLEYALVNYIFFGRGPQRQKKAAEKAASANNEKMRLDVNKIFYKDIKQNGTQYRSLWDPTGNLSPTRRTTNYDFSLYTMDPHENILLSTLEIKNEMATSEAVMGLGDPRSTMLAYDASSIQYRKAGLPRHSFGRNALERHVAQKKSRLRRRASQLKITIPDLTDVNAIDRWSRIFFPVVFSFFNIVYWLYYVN
Sequence of α1β2γ2 GABAA subtype receptor (P18507 40-475): as the sequence (P18507 40-475) above
Method: as §1, §2, §3, §4

[4] = target: α5β3γ2 GABAA subtype receptor (Homo sapiens, UniProt P18507+P31644); test: as above; assay type: cell-based; details: Xenopus oocytes, human subunits, GABA EC10; for Emax: read-out: oocyte electrophysiology maximum potentiation (%) α5β3γ2
Sequence of α5β3γ2 GABAA subtype receptor (P31644 32-462): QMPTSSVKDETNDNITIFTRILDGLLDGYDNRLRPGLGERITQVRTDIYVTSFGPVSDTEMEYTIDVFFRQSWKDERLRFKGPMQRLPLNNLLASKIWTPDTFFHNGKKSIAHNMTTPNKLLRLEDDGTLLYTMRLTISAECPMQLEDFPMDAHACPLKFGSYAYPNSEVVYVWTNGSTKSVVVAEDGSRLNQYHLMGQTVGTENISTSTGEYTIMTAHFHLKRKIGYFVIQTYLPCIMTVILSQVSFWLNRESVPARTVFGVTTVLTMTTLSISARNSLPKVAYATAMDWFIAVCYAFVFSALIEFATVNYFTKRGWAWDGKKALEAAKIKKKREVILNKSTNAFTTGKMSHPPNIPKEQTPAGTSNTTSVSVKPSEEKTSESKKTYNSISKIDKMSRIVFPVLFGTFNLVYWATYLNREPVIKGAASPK
Sequence of α5β3γ2 GABAA subtype receptor (P28472 26-473 partner): as the sequence (P28472 26-473 partner) above
Sequence of α5β3γ2 GABAA subtype receptor (P18507 40-475): as the sequence (P18507 40-475) above
Method: as §1, §2, §3, §4

[5] = target: α3β3γ2 GABAA subtype receptor (Homo sapiens, UniProt P18507+P34903); test: as above; assay type: cell-based; details: Xenopus oocytes, human subunits, GABA EC10
Sequence of α3β3γ2 GABAA subtype receptor (P34903 29-492): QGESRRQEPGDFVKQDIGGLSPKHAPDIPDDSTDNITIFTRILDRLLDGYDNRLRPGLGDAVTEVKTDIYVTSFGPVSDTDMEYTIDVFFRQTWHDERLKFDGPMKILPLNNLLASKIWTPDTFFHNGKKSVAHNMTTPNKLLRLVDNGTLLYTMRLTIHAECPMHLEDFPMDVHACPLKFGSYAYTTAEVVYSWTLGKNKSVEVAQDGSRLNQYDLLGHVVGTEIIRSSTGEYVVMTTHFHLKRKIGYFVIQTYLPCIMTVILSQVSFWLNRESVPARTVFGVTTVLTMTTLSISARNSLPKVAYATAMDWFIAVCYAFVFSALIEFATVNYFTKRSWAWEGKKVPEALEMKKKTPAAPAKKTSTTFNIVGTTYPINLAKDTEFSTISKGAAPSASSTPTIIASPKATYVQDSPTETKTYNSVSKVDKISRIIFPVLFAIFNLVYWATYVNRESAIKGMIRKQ
Sequence of α3β3γ2 GABAA subtype receptor (P28472 26-473 partner): as the sequence (P28472 26-473 partner) above
Sequence of α3β3γ2 GABAA subtype receptor (P18507 40-475): as the sequence (P18507 40-475) above
Method: as §1, §2, §3, §4

[6] = target: GABAA receptors (benzodiazepine site, Ro15-1788 binding sites), rat cortex; test: Ro15-1788 competition binding assay, rat cortex membranes; details: displacement of 3H Ro15-1788, read-out: Ro15-1788 binding, K1
Method: Rat cortex membranes are prepared by homogenizing one or two previously frozen rat cortexes in 30 ml of 25 mM Tris Buffer, pH 7.4. The homogenate is centrifuged for 10 minutes at 500× g. The supernatant is then transferred to a clean centrifuge tube and the pellet discarded. The supernatant is spun for 20 minutes at 48,000× g. The supernatant from this spin is discarded and the pellet is resuspended in 30 ml of 25 mM Tris Buffer, pH 7.4 and centrifuged for an additional 10 minutes at 48,000× g. The supernatant from the final spin is discarded and the membrane pellet is resuspended in 100 mL Tris buffer per gram of cortex used.
The cortex membrane preparation is used to perform either percent inhibition or competition binding assays. In order to determine percent inhibition 300 μl of resuspended membranes are mixed with 200 μl ^3H labeled Ro15-1788 (final concentration 2.5 nM) and incubated for 1 hour on ice in the presence of 2 μl test compound in DMSO (final concentration 4 μM). Membranes are harvested onto untreated filtermats. The filtermats are dried and the ^3H Ro15-1788 signal is counted in a scintillation counter. Nonspecific binding is determined by displacement of ^3H Ro15-1788 with 10 μM Diazepam (RBI) or any other compound known to bind tightly at the benzodiazepine site.
K1 values are calculated according to the Cheng-Prussof equation.

[7] = test system: bicuculline-induced seizures in rats; test: bicuculline seizure threshold test; assay type: in vivo; details: rat, compound infused 5 minutes before bicuculline
Text: This test provides a measure of whether the test compound is proconvulsant by measuring whether the test compound produces any change in the dose of the seizure inducing drug, bicuculline, needed to elicit seizures in rats. Test compounds must show <25% decrease in seizure threshold or p>0.05 significance to be considered as drug candidates.
Adult male Sprague-Dawley rats (175-300 g) are weighed and placed in a rat restrainer. A Teflon® indwelling catheter is placed in one of the lateral tail veins and held in place with surgical tape. The catheter and a 3.0 cc syringe are connected by a length of PE-100 tubing fitted with Hamilton male and female adapter. Patency of catheter placement is tested by backflow of venous blood and ready infusion of less than 2 ml of saline solution. Animals are placed in a clear acrylic cage for behavioral observation.
The test compound is prepared in either 25% or 50% polyethylene glycol 400 (PEG) vehicle. A bicuculline (BIC) stock solution of 1.0 mg/ml BIC in 25% PEG/75% 1N HCl is also prepared. […]
Test compound is infused 5 minutes prior to the start of bicuculline infusion. […] The time elapsed from the start of bicuculline infusion to first myoclonic jerk (first head/neck twitch), the initiation of full myoclonus (writhing), and final forelimb extension is all recorded using a digital stopwatch. […]

[8] = test system: rats; test: step-down passive avoidance; assay type: in vivo; details: rat, IV, cognitive enhancement
Text: In step-down passive avoidance a rat is placed on a platform located in the center of an electrified grid floor that is contained within a large (45 cm×45 cm×50 cm) white translucent Plexiglas® enclosure. The natural inclination of the rat is to step off the platform and investigate its surroundings. […] Each time the animal steps off the platform it receives a mild foot shock of 2 mAmps×6 sec. Following each shock the animal is removed from the box, placed in its cage for a one minute inter-trial interval, and then returned to the platform. The latency to step down on each trial, the number of trials taken to reach criterion during training and the retention latency are collected.
Testing is conducted approximately 24 hrs. after training. Drug-free animals are placed on the platform in the box in which they will have been trained and the latency to step down onto the grid floor is recorded for one trial as a measure of memory retention.

[9] = test system: rats; test: elevated plus maze; assay type: in vivo; details: rat, IV, statistically significant response (anxiolytic effect)
Method: The elevated plus maze model capitalizes on rats' innate fear of open, elevated places. The test apparatus is an elevated plus maze consisting of two open arms and two closed arms. A rat will naturally chose to spend more time on the closed arms of the maze than on the open arms but that if an efficacious anxiolytic compound is administered to the rat prior to the test the amount it of time the rat spends in the open arms is increased.
Test compound is administered IV in a 50% PEG (polyethylene glycol) vehicle 5 minutes prior to the test session. A range of compound doses is typically used and 8-10 rats are tested at each dose. The rat is placed in the center of the maze facing one of the open arms. The animal's locomotion is tracked over a five minute test session using photocells interfaced to a computer. The computer measures the number of entries into each arm and the time spent on each arm. An anxiolytic effect in the elevated plus maze model is defined by an increase in the percentage of time spent on the open arms in compound versus vehicle treated animals.

[10] = test system: rats; test: Porsolt forced swim test; assay type: in vivo; details: rat, administered IV, statistically significant response
Text: The effects measured in this model have been correlated to antidepressant efficacy for drugs. The paradigm of this model is that an effective antidepressant compound will cause a rat to make greater attempts to escape a water-filled cylinder than a rat given vehicle only.
Animals used in this study were non-naive male Sprague Dawley Rats (SASCO, St. Louis) weighing between 280-350 grams. The test apparatus consists of 6 clear Plexiglas cylinders 40 cm high×19 cm wide. Cylinders are filled to 18 cm with 25° C. water. Each rat is placed in a cylinder for a 15 minute training session. Following either subchronic or acute dosing of either vehicle (0.5% methylcellulose) of compound, animals are brought back 24 hours later for a 5 minute test session. These test session is videotaped for later scoring.
Subchronic dosing consists of administering drug three times in the 24-hour period between training and testing. The drug is administered 24 hrs., 5 hrs., and 1 hr. prior to the test session. Acute dosing consists of administering the drug once, 1 hour prior to the test session. Scoring is done using a time-sampling computer program written in Visual Basic and run in DOS. […] These sampling score are then converted into percentages of the test session.

[11] = test system: rats; test: spontaneous locomotor activity; assay type: in vivo; details: rat, in vivo, iv, 15 min
Method: Spontaneous locomotor activity can be measured to determine sedative effects of compounds. Locomotor activity is measured in eight computerized Digiscan-16 Animal Activity Monitors (Omnitech Electronics, Columbus, Ohio) equipped with 48 infrared photocell emitters and detectors. Each box is constructed of Plexiglas sides and floor. Horizontal activity is detected by a set of horizontal sensors on the front to back walls and a second group of sensors on the side to side walls located 5 cm above the cage floor. Vertical activity is detected by a third set of sensors on the side to side walls located 13.5 cm above the cage floor. The rats are tested in the presence of white noise (62 dB) and red St light (60 watt).
Test compound is administered IV in a 50% PEG vehicle 5 minutes prior to the test session. A range of compound doses is typically used and 6 to 8 rats are tested at each dose. The animal's movement time, vertical activity, and total distance traveled are tracked over a 15 minute test session. A sedative, or hypnotic, effect in the spontaneous locomotor activity model is defined by a decrease in any two of these three measures relative to animals given vehicle alone.

SMILES	cognitive model (spatial water maze), minimal efficacious dose ([1]; IV)	oocyte electrophysiology maximum potentiation (%) α2β3γ2 [2] [%]	Emax [3] [%]	Emax [4] [%]	oocyte electrophysiology maximum potentiation (%) α3β3γ2 [5] [%]	Ki [6] [µM]	cognitive model (spatial water maze), minimal efficacious dose ([1]; PO)	oocyte electrophysiology maximum potentiation (%) α1β2γ2 [3] [%]	oocyte electrophysiology maximum potentiation (%) α5β3γ2 [4] [%]	bicuculline seizure threshold, mean percent decrease in seizure threshold over the dose range studied [7] [%]	cognitive model (step-down passive avoidance), minimal efficacious dose [8] [mg/kg]	elevated plus maze, minimal efficacious dose [9] [mg/kg]	Porsolt swim test, minimal efficacious dose [10] [mg/kg]	spontaneous locomotor activity, minimal efficacious dose [11] [mg/kg]	EC50 [4] [nM]
O=C(Nc1ccccc1)c1c[nH]c2c1C(=O)CCCC2 [compound 13]	0.125^†† mg/kg	9	-17	-20	14	0.0063									
COc1ccc(F)c(-c2ncc3[nH]c4c(c3n2)CCCC4)c1 [compound 11]		21	-11	-22	36	0.033	PO = 10.0^†† mg/kg								
O=C1C2C=Nc3ccccc3C2=NN1c1ccccc1 (centres unmarked) [CGS 8216, reference compound]		−10			−8			−26	−39	50	0.06				
CCOc1ccc(NC(=O)c2c[nH]c3c2C(=O)CCC3)cc1 [compound 3]				-11					38			0.125	20	4	
CCOc1ccc(-n2c(=O)c3c[nH]c4ccccc4n-3c2=O)cc1 [compound 1]				-11				12	15			0.03	20		88
